Data from patent US20120301895A1, “METHODS OF MODULATING BINDING OF SON OF SEVENLESS TO PHOSPHATIDIC ACID AND IDENTIFYING COMPOUNDS THAT MODULATE SUCH BINDING” (THE RESEARCH FOUNDATION OF STATE UNIVERSITY OF NEW YORK, priority 2007, published 2012).

Tested on: Calu-1 cells
Test: Cell viability and PARP cleavage in Calu-1 cells
Type: cell-based, human
Details: honokiol 20 μM, 0.5% serum
Description: In FIG. 17A, T24 and Calu1 cells (obtained from the American Type Culture Collection) were plated in DMEM containing 10% serum for 48 hr and then shifted to either 10% serum or 0.5% serum overnight as indicated. Honokiol (20 μM) or control ethanol was then added for 4 hr as indicated. [^3H]-Myristate was added with the honokiol. After 4 hr, BtOH (0.7%) was added for 20 min, at which time the cells were harvested and the level of phosphatidyl-BtOH (P-Bt) was determined as in FIGS. 12A-C. The experiments shown are representative of at least two independent experiments. In FIG. 17B, T24 and Calu-1 cells were plated in DMEM with 10% serum for 48 hr then changed to DMEM containing either 10% or 0.5% serum overnight as indicated. Honokiol (20 μM) or control ethanol was then added either at the time of changing media (24 hr), or 4 hr before harvesting as in FIGS. 14A-E, at which time the cells were examined for cell viability or PARD cleavage. […]
Cell viability was determined by trypan blue exclusion. […] After 10 min, trypan blue uptake (dead cells) was determined by counting on a hemocytometer. Apoptosis was evaluated by examination of cleavage of the caspase 3 substrate PARP as described previously (Chen et al., “Alternative Phospholipase D/mTOR Survival Signal in Human Breast Cancer Cells,” Oncogene 24:672-9 (2005), which is hereby incorporated by reference in its entirety). […]

## C=CCc1ccc(O)c(-c2ccc(O)c(CC=C)c2)c1 [honokiol, Honokiol]
  PARP cleavage: induced
  cell death: induced
